± gives the uncertainty stated by the source.
Experiment: xn = mol fraction of the nth substance listed

CCCCn1cc[n+](C)c1.[Cl-] + O
101 kPa
Settings | viscosity [mPa·s]
293.15 K, x2 = 0.4982 | 235.1
293.15 K, x2 = 0.6132 | 85.9 ± 15
303.15 K, x2 = 0.5535 | 83.3 ± 14
308.15 K, x2 = 0.4982 | 92.5 ± 19

CCCOCCO + CC(C)O
298.15 K, 101.33 kPa
Settings | viscosity [mPa·s]
x1 = 0.0175 | 2.056 ± 0.016
x1 = 0.0326 | 2.039 ± 0.016
x1 = 0.0724 | 2.009 ± 0.015
x1 = 0.0909 | 1.994 ± 0.015
x1 = 0.1266 | 1.98 ± 0.015
x1 = 0.1696 | 1.971 ± 0.016
x1 = 0.2052 | 1.967 ± 0.016
x1 = 0.249 | 1.967 ± 0.016
x1 = 0.295 | 1.97 ± 0.016
x1 = 0.3499 | 1.977 ± 0.017
x1 = 0.398 | 1.993 ± 0.018
x1 = 0.4072 | 1.997 ± 0.018
x1 = 0.4661 | 2.019 ± 0.018
x1 = 0.5167 | 2.041 ± 0.019
x1 = 0.556 | 2.061 ± 0.02
x1 = 0.6058 | 2.084 ± 0.021
x1 = 0.6612 | 2.119 ± 0.022
x1 = 0.7297 | 2.159 ± 0.023
x1 = 0.7751 | 2.192 ± 0.024
x1 = 0.8315 | 2.23 ± 0.025
x1 = 0.8979 | 2.275 ± 0.027
x1 = 0.9565 | 2.318 ± 0.028

Nc1cccc2ccccc12 + CCCO
viscosity [mPa·s], 101 kPa
Settings | x1 = 0.02914 | x1 = 0.0566 | x1 = 0.1072 | x1 = 0.1525 | x1 = 0.1936 | x1 = 0.2308 | x1 = 0.2648
293.15 K | 2.371 ± 0.054 | 2.516 ± 0.057 | 2.846 ± 0.064 | 3.22 ± 0.072 | 3.628 ± 0.081 | 4.054 ± 0.09 | 4.498 ± 0.099
303.15 K | 1.836 ± 0.043 | 1.937 ± 0.045 | 2.154 ± 0.05 | 2.392 ± 0.055 | 2.662 ± 0.06 | 2.931 ± 0.066 | 3.222 ± 0.072
313.15 K | 1.445 ± 0.036 | 1.518 ± 0.037 | 1.674 ± 0.04 | 1.839 ± 0.043 | 2.02 ± 0.047 | 2.211 ± 0.051 | 2.403 ± 0.055
323.15 K | 1.153 ± 0.031 | 1.21 ± 0.032 | 1.324 ± 0.034 | 1.443 ± 0.036 | 1.57 ± 0.038 | 1.7 ± 0.041 | 1.838 ± 0.043

CCCOCCO + O=S1(=O)CCCC1
303.15 K, 101 kPa
Settings | viscosity [mPa·s]
x2 = 0.0493 | 1.842 ± 0.014
x2 = 0.1029 | 1.682 ± 0.014
x2 = 0.1508 | 1.659 ± 0.014
x2 = 0.1991 | 1.748 ± 0.015
x2 = 0.2989 | 2.284 ± 0.02
x2 = 0.3489 | 2.685 ± 0.024
x2 = 0.3998 | 3.16 ± 0.028
x2 = 0.4993 | 4.193 ± 0.039
x2 = 0.5988 | 5.262 ± 0.051
x2 = 0.7002 | 6.392 ± 0.064
x2 = 0.8 | 7.572 ± 0.078
x2 = 0.9012 | 8.861 ± 0.094
x2 = 0.9504 | 9.498 ± 0.1

N#Cc1ccccc1 + COC(C)(C)C
viscosity [mPa·s], 101.33 kPa
Settings | x2 = 0.1048 | x2 = 0.2024 | x2 = 0.3015 | x2 = 0.3969 | x2 = 0.4912 | x2 = 0.6055 | x2 = 0.7115 | x2 = 0.7995 | x2 = 0.905
293.15 K | 1.277 ± 0.067 | 1.18 ± 0.062 | 1.081 ± 0.057 | 0.9863 ± 0.052 | 0.8924 ± 0.047 | 0.7787 ± 0.041 | 0.6732 ± 0.036 | 0.5856 ± 0.031 | 0.4806 ± 0.025
298.15 K | 1.185 ± 0.062 | 1.096 ± 0.058 | 1.006 ± 0.053 | 0.9189 ± 0.048 | 0.8329 ± 0.044 | 0.7286 ± 0.038 | 0.6319 ± 0.033 | 0.5516 ± 0.029 | 0.4554 ± 0.024

CCC(=O)OC + Clc1ccccc1
viscosity [mPa·s], 101.3 kPa
Settings | 308.15 K | 318.15 K
x1 = 0.0485 | 0.646 ± 0.004 | 0.598 ± 0.004
x1 = 0.0993 | 0.635 ± 0.004 | 0.589 ± 0.004
x1 = 0.2038 | 0.612 ± 0.004 | 0.57 ± 0.004
x1 = 0.2614 | 0.599 ± 0.004 | 0.559 ± 0.004
x1 = 0.4087 | 0.567 ± 0.004 | 0.531 ± 0.004
x1 = 0.4556 | 0.556 ± 0.004 | 0.522 ± 0.004
x1 = 0.6041 | 0.523 ± 0.004 | 0.493 ± 0.004
x1 = 0.7011 | 0.503 ± 0.004 | 0.475 ± 0.004
x1 = 0.8064 | 0.479 ± 0.004 | 0.454 ± 0.004
x1 = 0.9054 | 0.457 ± 0.004 | 0.434 ± 0.004
x1 = 0.9486 | 0.448 ± 0.004 | 0.426 ± 0.004

CCCCn1cc[n+](C)c1.[Cl-] + CN(C)C=O
101 kPa
Settings | viscosity [mPa·s]
293.15 K, x2 = 0.5025 | 76.7 ± 21
293.15 K, x2 = 0.9 | 3.41 ± 1.5
298.15 K, x2 = 0.501 | 64.4 ± 11
303.15 K, x2 = 0.7005 | 9.55 ± 1.6
308.15 K, x1 = 0.1056 | 1.665 ± 0.15
308.15 K, x1 = 0.1399 | 2.135 ± 0.18
308.15 K, x2 = 0.7 | 7.76 ± 1.3

NNc1ccccc1 + Oc1ccccc1
323.1 K, 101 kPa
Settings | viscosity [mPa·s]
x1 = 0.181 | 5.25 ± 0.11
x1 = 0.369 | 7.49 ± 0.15
x1 = 0.466 | 8.02 ± 0.16
x1 = 0.502 | 8.2 ± 0.16
x1 = 0.595 | 8.05 ± 0.16
x1 = 0.781 | 6.56 ± 0.13

N#Cc1ccccc1 + COc1ccccc1
viscosity [mPa·s], 101.33 kPa
Settings | x2 = 0.0923 | x2 = 0.1792 | x2 = 0.2764 | x2 = 0.3719 | x2 = 0.4735 | x2 = 0.6068 | x2 = 0.7036 | x2 = 0.808 | x2 = 0.8989
293.15 K | 1.315 ± 0.069 | 1.3 ± 0.068 | 1.27 ± 0.067 | 1.235 ± 0.065 | 1.191 ± 0.062 | 1.164 ± 0.061 | 1.149 ± 0.06 | 1.134 ± 0.06 | 1.119 ± 0.059
298.15 K | 1.226 ± 0.064 | 1.201 ± 0.063 | 1.181 ± 0.062 | 1.142 ± 0.06 | 1.122 ± 0.059 | 1.088 ± 0.057 | 1.079 ± 0.057 | 1.056 ± 0.055 | 1.036 ± 0.054

CCCOCCO + CO
298.15 K, 101.33 kPa
Settings | viscosity [mPa·s]
x1 = 0.0024 | 0.553 ± 0.01
x1 = 0.0177 | 0.581 ± 0.01
x1 = 0.041 | 0.62 ± 0.011
x1 = 0.0504 | 0.644 ± 0.011
x1 = 0.0697 | 0.673 ± 0.011
x1 = 0.0903 | 0.729 ± 0.012
x1 = 0.1252 | 0.801 ± 0.013
x1 = 0.159 | 0.865 ± 0.014
x1 = 0.1826 | 0.914 ± 0.015
x1 = 0.2208 | 0.989 ± 0.016
x1 = 0.2613 | 1.084 ± 0.018
x1 = 0.2874 | 1.149 ± 0.019
x1 = 0.3049 | 1.199 ± 0.019
x1 = 0.341 | 1.284 ± 0.021
x1 = 0.3895 | 1.394 ± 0.022
x1 = 0.4426 | 1.499 ± 0.024
x1 = 0.4816 | 1.577 ± 0.026
x1 = 0.5329 | 1.68 ± 0.027
x1 = 0.5596 | 1.737 ± 0.028
x1 = 0.6366 | 1.878 ± 0.031
x1 = 0.6677 | 1.927 ± 0.032
x1 = 0.7153 | 2.014 ± 0.034
x1 = 0.7701 | 2.115 ± 0.036
x1 = 0.8053 | 2.16 ± 0.037
x1 = 0.8437 | 2.194 ± 0.038
x1 = 0.8812 | 2.248 ± 0.039
x1 = 0.9415 | 2.323 ± 0.041
x2 = 0.0116 | 2.347 ± 0.042

CCCCOCCCOCCCO + CCO
viscosity [mPa·s], 101.33 kPa
Settings | 298.15 K | 308.15 K | 318.15 K
x1 = 0.05 | 1.3 ± 0.02 | 1.074 ± 0.017 | 0.896 ± 0.015
x1 = 0.1 | 1.505 ± 0.023 | 1.227 ± 0.019 | 1.015 ± 0.016
x1 = 0.15 | 1.717 ± 0.026 | 1.386 ± 0.021 | 1.137 ± 0.018
x1 = 0.2 | 1.927 ± 0.029 | 1.541 ± 0.023 | 1.256 ± 0.02
x1 = 0.25 | 2.135 ± 0.032 | 1.696 ± 0.026 | 1.369 ± 0.021
x1 = 0.3 | 2.362 ± 0.035 | 1.858 ± 0.028 | 1.497 ± 0.023
x1 = 0.35 | 2.562 ± 0.038 | 2.003 ± 0.03 | 1.597 ± 0.024
x1 = 0.4001 | 2.755 ± 0.04 | 2.14 ± 0.032 | 1.696 ± 0.026
x1 = 0.4499 | 2.94 ± 0.043 | 2.265 ± 0.034 | 1.79 ± 0.027
x1 = 0.4999 | 3.121 ± 0.045 | 2.39 ± 0.035 | 1.879 ± 0.028
x1 = 0.5499 | 3.292 ± 0.048 | 2.51 ± 0.037 | 1.956 ± 0.029
x1 = 0.5997 | 3.453 ± 0.05 | 2.622 ± 0.038 | 2.039 ± 0.03
x1 = 0.6501 | 3.608 ± 0.052 | 2.724 ± 0.04 | 2.114 ± 0.032
x1 = 0.6998 | 3.756 ± 0.054 | 2.821 ± 0.041 | 2.182 ± 0.032
x1 = 0.7499 | 3.899 ± 0.056 | 2.91 ± 0.043 | 2.24 ± 0.033
x1 = 0.7999 | 4.018 ± 0.058 | 2.998 ± 0.044 | 2.306 ± 0.034
x1 = 0.8499 | 4.147 ± 0.059 | 3.088 ± 0.045 | 2.363 ± 0.035
x1 = 0.8997 | 4.271 ± 0.061 | 3.158 ± 0.046 | 2.423 ± 0.036
x1 = 0.9498 | 4.386 ± 0.063 | 3.233 ± 0.047 | 2.466 ± 0.037
